Target: c-Met (MET kinase) (Homo sapiens, UniProt P08581)
Assay: ADP-Glo MET kinase enzyme system (in vitro kinase assay)
Format: biochemical

Chain of c-Met (MET kinase) (P08581 25-307): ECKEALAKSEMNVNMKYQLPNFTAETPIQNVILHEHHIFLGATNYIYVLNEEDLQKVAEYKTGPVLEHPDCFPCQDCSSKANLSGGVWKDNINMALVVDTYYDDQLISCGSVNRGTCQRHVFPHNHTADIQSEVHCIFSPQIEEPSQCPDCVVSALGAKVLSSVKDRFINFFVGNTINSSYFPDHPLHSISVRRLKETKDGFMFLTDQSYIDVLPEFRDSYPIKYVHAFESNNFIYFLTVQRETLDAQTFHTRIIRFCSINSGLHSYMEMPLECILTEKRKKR
Chain of c-Met (MET kinase) (P08581 308-1390): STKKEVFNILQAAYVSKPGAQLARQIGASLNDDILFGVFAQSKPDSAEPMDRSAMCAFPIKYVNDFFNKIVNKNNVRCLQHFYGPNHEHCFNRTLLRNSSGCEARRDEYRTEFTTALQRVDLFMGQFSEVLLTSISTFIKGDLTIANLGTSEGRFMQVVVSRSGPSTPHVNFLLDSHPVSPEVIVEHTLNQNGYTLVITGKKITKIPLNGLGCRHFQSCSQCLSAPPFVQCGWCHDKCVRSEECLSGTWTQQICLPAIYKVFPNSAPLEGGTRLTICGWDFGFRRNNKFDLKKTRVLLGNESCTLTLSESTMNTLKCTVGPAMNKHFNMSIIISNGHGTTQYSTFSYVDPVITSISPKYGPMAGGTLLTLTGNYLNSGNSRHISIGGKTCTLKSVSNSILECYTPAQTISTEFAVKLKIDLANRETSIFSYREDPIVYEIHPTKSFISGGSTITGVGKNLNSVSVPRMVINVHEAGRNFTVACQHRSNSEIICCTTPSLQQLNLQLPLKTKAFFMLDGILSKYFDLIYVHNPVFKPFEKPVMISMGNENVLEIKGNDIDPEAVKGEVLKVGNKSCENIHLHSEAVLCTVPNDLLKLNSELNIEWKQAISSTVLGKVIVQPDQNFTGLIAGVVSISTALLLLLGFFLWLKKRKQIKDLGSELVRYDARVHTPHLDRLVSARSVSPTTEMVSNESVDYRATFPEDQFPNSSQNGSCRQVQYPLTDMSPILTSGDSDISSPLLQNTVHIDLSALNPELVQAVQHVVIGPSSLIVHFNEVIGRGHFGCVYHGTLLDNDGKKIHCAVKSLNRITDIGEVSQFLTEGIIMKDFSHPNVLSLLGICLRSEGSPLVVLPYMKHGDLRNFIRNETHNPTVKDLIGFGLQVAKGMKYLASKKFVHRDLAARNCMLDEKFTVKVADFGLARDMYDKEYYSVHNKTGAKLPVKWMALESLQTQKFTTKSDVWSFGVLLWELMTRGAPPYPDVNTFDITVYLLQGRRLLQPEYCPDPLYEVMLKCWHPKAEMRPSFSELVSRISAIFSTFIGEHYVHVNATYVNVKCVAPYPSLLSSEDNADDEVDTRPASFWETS

CCN1CCN(Cc2ccc(Nc3ncc(F)c(-c4cc(F)c5nc(C)n(C(C)C)c5c4)n3)nc2)CC1 [Abemaciclib]
ADP-Glo MET kinase enzyme system (in vitro kinase assay): abemaciclib was shown to inhibit kinase activity of c-Met at high concentrations

— article PMC7864197, “High-Content Analysis-Based Sensitivity Prediction and Novel Therapeutics Screening for c-Met-Addicted Glioblastoma” (Cancers, 2021)
